What was measured:
T-47D cells = assay: Whole genome gene expression microarray in T-47D cells; assay type: cell-based, human; details: 10 nM, 2, 6 and 24 h, self-organizing map clustering
Procedure: (§1) Total RNA was isolated using RNAqueous purification columns (Invitrogen). Total RNA (500 ng) was amplified and biotin labelled using Illumina TotalPrep reagents (Invitrogen). The amplified samples (750 ng) were hybridized to human whole genome HT-12 gene expression bead arrays using the recommended Illumina reagents and following the manufacturer's protocol. Raw data were analysed using Genome Studio software (Illumina). After background subtraction data and cubic spline normalization, differential expression p values were determined using the Illumina custom model of Genome Studio. Data were further analysed using Microsoft Excel and SPSS statistical software. Hierarchical clustering and self organizing map clustering were performed using GenePattern.
(A and B) Overlap between PR binding regions and progestin regulated genes in (A) T-47D and (B) AB32 cells. (C and D) PR binding regions within 10 kb or in the 5′-UTR of genes regulated at 2, 6 and 24 h in (C) T-47D and (D) AB32 cells. (E) Genes with patterns of progestin regulation in T-47D cells that grouped together were identified by SOM cluster analysis using Gene Pattern. […]
In reference to FIG. 3B, T-47D and AB32 cells were treated with 10 nM ORG2058 (ORG) or vehicle for 2, 6 and 24 h. Transcript expression was measured by whole genome microarray. […]

PR [1] = target: T1, PR (Homo sapiens, UniProt P06401); assay type: cell-based; parameters: endogenous in cells; host or cells: T-47D; details: T-47D breast cancer cells, 10 nM, 45 minutes, false discovery rate 0.27%
T1 sequence (P06401 1-933): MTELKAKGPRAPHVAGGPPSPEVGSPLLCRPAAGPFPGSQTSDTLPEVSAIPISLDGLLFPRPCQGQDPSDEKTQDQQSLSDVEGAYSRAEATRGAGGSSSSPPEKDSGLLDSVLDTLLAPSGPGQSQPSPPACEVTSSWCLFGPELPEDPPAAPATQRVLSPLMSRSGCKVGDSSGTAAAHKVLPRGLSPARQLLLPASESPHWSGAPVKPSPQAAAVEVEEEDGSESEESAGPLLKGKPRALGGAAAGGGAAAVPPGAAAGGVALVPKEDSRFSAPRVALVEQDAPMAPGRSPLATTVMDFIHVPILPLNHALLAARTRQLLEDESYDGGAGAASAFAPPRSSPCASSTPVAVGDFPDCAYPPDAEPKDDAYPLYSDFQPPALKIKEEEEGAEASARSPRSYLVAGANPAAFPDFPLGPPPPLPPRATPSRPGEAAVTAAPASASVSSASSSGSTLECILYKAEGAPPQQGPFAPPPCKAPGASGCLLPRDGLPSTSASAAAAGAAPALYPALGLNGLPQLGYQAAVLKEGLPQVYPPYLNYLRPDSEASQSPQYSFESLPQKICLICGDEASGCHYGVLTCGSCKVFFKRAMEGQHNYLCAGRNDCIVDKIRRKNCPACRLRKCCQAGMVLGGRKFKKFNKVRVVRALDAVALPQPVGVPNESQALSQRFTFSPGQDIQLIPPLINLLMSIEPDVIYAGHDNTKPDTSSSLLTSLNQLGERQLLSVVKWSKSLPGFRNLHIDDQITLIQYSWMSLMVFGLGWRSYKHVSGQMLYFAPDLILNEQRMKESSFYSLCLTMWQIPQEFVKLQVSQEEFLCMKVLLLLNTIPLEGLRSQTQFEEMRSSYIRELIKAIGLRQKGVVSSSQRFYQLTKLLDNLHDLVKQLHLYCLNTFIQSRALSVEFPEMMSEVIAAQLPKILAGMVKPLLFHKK
Procedure: (§2) In one aspect, PR genomic interactions were mapped in T-47D breast cancer cells and in the AB32 cell line: a stable PR expressing clone of the MCF-10A immortalized normal breast cell line. Cells were treated with the progestin ORG2058 (10 nM, 45 minutes), followed by PR-chromatin immunoprecipitation (ChIP) and Illumina sequencing. Sequences were aligned to the human genome and genomic regions enriched in the alignments were identified using the Bowtie and ERANGE [38] software tools (false discovery rate 0.27%).
(§3) Cells were cultured to 80% confluency in 15 cm tissue culture dishes, then treated for 45 minutes with 10 nM ORG2058 or vehicle. Chromatin was subsequently cross-linked by the addition of formaldehyde to the culture medium to a final concentration of 1% and incubation for 10 minutes at 37° C. Media were immediately removed and the cells were washed with cold phosphate buffered saline and harvested by scraping. Cells were collected by centrifugation and pellets were lysed 10 minutes at 4° C. in SDS buffer (1% SDS; 10 mM EDTA; 50 mM Tris-HCl, pH 8). The lysates were sonicated at 4° C. with a Branson 450 sonicator, using seven one minute bursts at 40% amplitude and 60% duty, each separated by a rest of at least one minute. Lysates were centrifuged at 13,000×g at 4° C. for 15 minutes to remove debris. […]

PR [2] = assay type: cell-based, human; details: AB32 cells (PR expressing clone of MCF-10A), 10 nM, 45 minutes, false discovery rate 0.27%
Procedure: as §2, §3

AB32 cells = assay: Whole genome gene expression microarray in AB32 cells; assay type: cell-based, human; details: 10 nM, 2, 6 and 24 h
Procedure: as §1
In reference to FIG. 3B, T-47D and AB32 cells were treated with 10 nM ORG2058 (ORG) or vehicle for 2, 6 and 24 h. Transcript expression was measured by whole genome microarray. Genes that were differentially expressed in ORG2058 treated samples relative to the untreated control at one or more time point in T-47D or AB32 cells were compared by unsupervised hierarchical cluster analysis. Red—increased expression, green—decreased expression relative to vehicle treated control.
In reference to FIG. 10, progestin regulated transcripts were identified in AB32 cells at 2, 6 and 24 h treatment with 10 nM ORG2058 by gene expression profiling. […]

PR [3] = target: T1, PR; details: cited from earlier work

Structure (SMILES)	cluster of transcripts decreased at all time points, beginning to return toward basal levels at 24 h (T-47D cells)	peaks of PR binding identified (PR [1])	PR binding regions detected (PR [2])	direction of transcript regulation (AB32 cells)	dissociation from PR compared with ORG2058 (PR [3])
CC[C@@H]1C[C@H]2[C@@H]3CCC4=CC(=O)CC[C@@H]4[C@H]3CC[C@]2(C)[C@H]1C(=O)CO [ORG2058, (8R,9S,10R,13S,14S,16R,17S)-16-ethyl-17-(2-hydroxyacetyl)-13-methyl-2,6,7,8,9,10,11,12,14,15,16,17-dodecahydro-1H-cyclopenta[a]phenanthren-3-one]	26	6312	8117	more transcripts were decreased than increased	
CC(=O)[C@H]1CC[C@H]2[C@@H]3CCC4=CC(=O)CC[C@]4(C)[C@H]3CC[C@]12C [progesterone]					dissociates from PR more rapidly
